Reference: publication PMC12281424, “A Rac-specific competitive inhibitor of guanine nucleotide binding reduces metastasis in triple-negative breast cancer” (Cell Reports Medicine, 2025)

Experiments:
MDA-MB-468 Luc cells = experiment: Focus formation (clonogenic) assay; format: cell-based
Experimental: (§1) Figure 5 A41 decreases growth and invasiveness of TNBC cells in vitro (A) Representative images of RAC-GTP levels (red) in MDA-MB-468 Luc cells in the absence (CTL) and presence of EHT1864, NSC23766, or A41 (1 h at 10 μM) (left). Luciferase (Luc, green) was used to detect the cells. RAC-GTP mean fluorescence intensity was quantified inside the cell area (right) (n = 31–37 cells from 3 independent experiments; ∗p < 0.05, ∗∗∗p < 0.001) (scale bars: 10 μm). […] (C) Quantification of colony number of indicated cancer cell lines in the presence of A41 (10 μM) expressed as the percentage of control in the absence of A41. Results shown are representative of N > 3 independent experiments. (D) Immunoblot analysis and corresponding quantification of AKT and P44/42 expression and phosphorylation (pAKT, p44/42) in MDA-MB-468 Luc cells in the absence (−) and presence of NSC23766 or A41 (1 h at 10^−5 M). Results shown are representative of 3 independent experiments. ∗∗p < 0.01 vs. untreated cells, ^###p < 0.001 vs. NSC23766-treated cells. (E) 3D invasion assay of MDA-MB-468 Luc and cancer-associated fibroblasts (CAFs) and corresponding quantification (scale bars: 200 μm). […]
1000 cells/well from the indicated cancer cell lines were seeded in 6-wells plates and allowed to grow 2 days before treatments. […] The area occupied by the cells was then quantified with ImageJ software.

[1] = tested on: AKT phosphorylation in MDA-MB-468 Luc cells; experiment: Immunoblotting; format: cell-based; details: 10^-5 M, 1 h
Experimental: as §1, with “Results shown are representative of 3 independent experiments. ∗∗p < 0.01 vs. untreated cells, ^###p < 0.001 vs. NSC23766-treated cells.” left out
(§2) After indicated treatments, MDA-MB-468Luc cells were incubated on ice with lysis buffer supplemented with proteases and phosphatases inhibitor cocktails (Sigma Aldrich, Saint Quentin Fallavier, France) and sodium orthovanadate. […] Protein band intensities were quantified using ImageJ Software (NIH software, Bethesda, Md).

[2] = tested on: p44/42 phosphorylation in MDA-MB-468 Luc cells; experiment: Immunoblotting; format: cell-based; details: 10^-5 M, 1 h
Experimental: as §1, with “Results shown are representative of 3 independent experiments. ∗∗p < 0.01 vs. untreated cells, ^###p < 0.001 vs. NSC23766-treated cells.” left out
as §2

Adrenergic α1D = Adrenergic α1D (Homo sapiens, UniProt P25100); experiment: Safety screen; format: binding
Experimental: (§3) Blood cell counts, kinase profiler, safety screen, bacterial cytotoxicity, Ames, micronucleus assays were performed by the company Eurofins (France).

Dopamine D2S = Dopamine D2S (Homo sapiens, UniProt P14416); experiment: Safety screen; format: binding
Experimental: as §3

AMPKα1(h) = AMPKα1(h) (Homo sapiens, UniProt Q13131); experiment: Kinase Profiler; format: biochemical
Experimental: (§4) Blood cell counts, kinase profiler, safety screen, bacterial cytotoxicity, Ames, micronucleus assays were performed by the company Eurofins (France). The kinase profiler was performed by the company Eurofins (Discovery, Panlab and Cerep).

BIKe(h) = BIKe(h) (Homo sapiens, UniProt Q9NSY1); experiment: Kinase Profiler; format: biochemical
Experimental: as §4

BMPR2(h) = BMPR2(h) (Homo sapiens, UniProt Q13873); experiment: Kinase Profiler; format: biochemical
Experimental: as §4

CDK6/cyclinD3(h) = CDK6/cyclinD3(h) (Homo sapiens, UniProt Q00534); experiment: Kinase Profiler; format: biochemical
Chain of CDK6/cyclinD3(h) (Q00534 whole entry): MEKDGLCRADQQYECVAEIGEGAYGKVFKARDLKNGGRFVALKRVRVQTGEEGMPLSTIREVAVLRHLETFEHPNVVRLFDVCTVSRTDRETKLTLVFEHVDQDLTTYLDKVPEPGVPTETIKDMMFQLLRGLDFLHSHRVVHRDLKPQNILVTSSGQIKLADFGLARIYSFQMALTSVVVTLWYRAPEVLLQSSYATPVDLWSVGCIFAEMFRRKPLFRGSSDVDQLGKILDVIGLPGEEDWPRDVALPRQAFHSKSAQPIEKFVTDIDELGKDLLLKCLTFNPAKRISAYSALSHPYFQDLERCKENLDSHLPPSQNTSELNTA
Chain of CDK6/cyclinD3(h) (P30281 whole entry partner): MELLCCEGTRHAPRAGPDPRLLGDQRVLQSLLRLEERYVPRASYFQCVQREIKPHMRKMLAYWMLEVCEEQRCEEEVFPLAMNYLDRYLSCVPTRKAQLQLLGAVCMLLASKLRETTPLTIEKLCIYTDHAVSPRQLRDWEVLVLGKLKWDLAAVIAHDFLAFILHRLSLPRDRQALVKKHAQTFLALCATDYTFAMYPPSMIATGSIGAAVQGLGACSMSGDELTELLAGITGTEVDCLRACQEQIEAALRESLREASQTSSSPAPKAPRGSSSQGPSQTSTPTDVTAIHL
Experimental: as §4

CRIK(h) = CRIK(h) (Homo sapiens, UniProt O14578); experiment: Kinase Profiler; format: biochemical
Experimental: (§5) The kinase profiler was performed by the company Eurofins (Discovery, Panlab and Cerep).

DYRK3(h) = DYRK3(h) (Homo sapiens, UniProt O43781); experiment: Kinase Profiler; format: biochemical
Experimental: as §5

GRK7(h) = GRK7(h) (Homo sapiens, UniProt Q8WTQ7); experiment: Kinase Profiler; format: biochemical
Experimental: as §4

Itk(h) = Itk(h) (Homo sapiens, UniProt Q08881); experiment: Kinase Profiler; format: biochemical
Chain of Itk(h) (Q08881 whole entry): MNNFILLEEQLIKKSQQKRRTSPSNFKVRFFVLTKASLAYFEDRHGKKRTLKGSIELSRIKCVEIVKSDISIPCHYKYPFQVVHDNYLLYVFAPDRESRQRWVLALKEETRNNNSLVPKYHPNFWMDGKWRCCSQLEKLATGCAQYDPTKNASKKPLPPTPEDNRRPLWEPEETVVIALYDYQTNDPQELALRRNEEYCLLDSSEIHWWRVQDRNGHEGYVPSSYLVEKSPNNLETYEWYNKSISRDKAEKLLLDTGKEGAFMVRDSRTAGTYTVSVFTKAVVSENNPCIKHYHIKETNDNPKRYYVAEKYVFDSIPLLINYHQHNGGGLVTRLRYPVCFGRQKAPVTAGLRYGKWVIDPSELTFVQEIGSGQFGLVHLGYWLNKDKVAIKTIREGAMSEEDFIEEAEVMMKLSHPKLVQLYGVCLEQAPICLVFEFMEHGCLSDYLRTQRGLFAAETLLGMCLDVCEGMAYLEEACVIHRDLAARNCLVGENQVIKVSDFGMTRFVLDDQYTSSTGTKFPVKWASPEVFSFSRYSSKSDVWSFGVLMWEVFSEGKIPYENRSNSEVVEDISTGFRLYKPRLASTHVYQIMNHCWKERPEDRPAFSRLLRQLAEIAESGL
Experimental: as §5

MARK1(h) = MARK1(h) (Homo sapiens, UniProt Q9P0L2); experiment: Kinase Profiler; format: biochemical
Chain of MARK1(h) (Q9P0L2 whole entry): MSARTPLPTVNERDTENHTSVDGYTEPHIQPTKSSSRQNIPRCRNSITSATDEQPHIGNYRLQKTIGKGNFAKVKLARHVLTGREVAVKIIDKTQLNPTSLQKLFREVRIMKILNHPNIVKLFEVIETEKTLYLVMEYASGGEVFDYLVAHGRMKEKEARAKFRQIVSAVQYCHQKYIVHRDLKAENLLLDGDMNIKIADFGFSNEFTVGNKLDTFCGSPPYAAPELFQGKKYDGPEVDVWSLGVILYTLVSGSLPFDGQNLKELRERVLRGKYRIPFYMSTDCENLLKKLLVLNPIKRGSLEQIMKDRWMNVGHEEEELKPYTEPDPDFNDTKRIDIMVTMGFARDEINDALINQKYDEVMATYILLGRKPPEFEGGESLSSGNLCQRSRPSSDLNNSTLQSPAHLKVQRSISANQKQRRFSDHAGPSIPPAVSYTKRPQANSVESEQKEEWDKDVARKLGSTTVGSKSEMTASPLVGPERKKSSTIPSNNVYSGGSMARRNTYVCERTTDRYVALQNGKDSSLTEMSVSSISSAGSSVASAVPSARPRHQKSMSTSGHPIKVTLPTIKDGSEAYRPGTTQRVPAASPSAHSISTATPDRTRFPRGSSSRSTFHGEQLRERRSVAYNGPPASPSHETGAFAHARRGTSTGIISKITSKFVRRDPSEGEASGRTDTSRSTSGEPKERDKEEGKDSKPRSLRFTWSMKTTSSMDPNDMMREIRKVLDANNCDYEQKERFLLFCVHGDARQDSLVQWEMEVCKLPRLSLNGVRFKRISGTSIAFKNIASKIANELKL
Experimental: as §5

NEK11(h) = NEK11(h) (Homo sapiens, UniProt Q8NG66); experiment: Kinase Profiler; format: biochemical
Experimental: as §5

p70S6K(h) = p70S6K(h) (Homo sapiens, UniProt P23443); experiment: Kinase Profiler; format: biochemical
Experimental: as §4

PAK1(h) = PAK1(h) (Homo sapiens, UniProt Q13153); experiment: Kinase Profiler; format: biochemical
Chain of PAK1(h) (Q13153 whole entry): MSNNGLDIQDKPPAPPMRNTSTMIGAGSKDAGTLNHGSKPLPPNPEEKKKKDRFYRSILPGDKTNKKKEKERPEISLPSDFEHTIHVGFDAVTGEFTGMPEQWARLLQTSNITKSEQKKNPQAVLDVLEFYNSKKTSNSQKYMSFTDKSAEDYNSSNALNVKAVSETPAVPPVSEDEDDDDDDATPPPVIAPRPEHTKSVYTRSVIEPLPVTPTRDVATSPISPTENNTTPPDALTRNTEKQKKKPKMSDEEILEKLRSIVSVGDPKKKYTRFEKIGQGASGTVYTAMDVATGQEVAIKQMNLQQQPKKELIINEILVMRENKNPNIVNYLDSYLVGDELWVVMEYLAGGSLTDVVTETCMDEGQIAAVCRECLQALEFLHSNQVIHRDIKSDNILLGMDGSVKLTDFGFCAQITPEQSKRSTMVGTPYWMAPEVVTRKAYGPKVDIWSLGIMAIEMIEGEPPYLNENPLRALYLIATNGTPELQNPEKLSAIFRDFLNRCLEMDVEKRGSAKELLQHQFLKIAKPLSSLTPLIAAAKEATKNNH
Experimental: as §4

PAK3(h) = PAK3(h) (Homo sapiens, UniProt O75914); experiment: Kinase Profiler; format: biochemical
Experimental: as §5

PKBγ(h) = PKBγ(h) (Homo sapiens, UniProt Q9Y243); experiment: Kinase Profiler; format: biochemical
Experimental: as §5

PKD3(h) = PKD3(h) (Homo sapiens, UniProt O94806); experiment: Kinase Profiler; format: biochemical
Experimental: as §5

PRK1(h) = PRK1(h) (Homo sapiens, UniProt Q16512); experiment: Kinase Profiler; format: biochemical
Chain of PRK1(h) (Q16512 whole entry): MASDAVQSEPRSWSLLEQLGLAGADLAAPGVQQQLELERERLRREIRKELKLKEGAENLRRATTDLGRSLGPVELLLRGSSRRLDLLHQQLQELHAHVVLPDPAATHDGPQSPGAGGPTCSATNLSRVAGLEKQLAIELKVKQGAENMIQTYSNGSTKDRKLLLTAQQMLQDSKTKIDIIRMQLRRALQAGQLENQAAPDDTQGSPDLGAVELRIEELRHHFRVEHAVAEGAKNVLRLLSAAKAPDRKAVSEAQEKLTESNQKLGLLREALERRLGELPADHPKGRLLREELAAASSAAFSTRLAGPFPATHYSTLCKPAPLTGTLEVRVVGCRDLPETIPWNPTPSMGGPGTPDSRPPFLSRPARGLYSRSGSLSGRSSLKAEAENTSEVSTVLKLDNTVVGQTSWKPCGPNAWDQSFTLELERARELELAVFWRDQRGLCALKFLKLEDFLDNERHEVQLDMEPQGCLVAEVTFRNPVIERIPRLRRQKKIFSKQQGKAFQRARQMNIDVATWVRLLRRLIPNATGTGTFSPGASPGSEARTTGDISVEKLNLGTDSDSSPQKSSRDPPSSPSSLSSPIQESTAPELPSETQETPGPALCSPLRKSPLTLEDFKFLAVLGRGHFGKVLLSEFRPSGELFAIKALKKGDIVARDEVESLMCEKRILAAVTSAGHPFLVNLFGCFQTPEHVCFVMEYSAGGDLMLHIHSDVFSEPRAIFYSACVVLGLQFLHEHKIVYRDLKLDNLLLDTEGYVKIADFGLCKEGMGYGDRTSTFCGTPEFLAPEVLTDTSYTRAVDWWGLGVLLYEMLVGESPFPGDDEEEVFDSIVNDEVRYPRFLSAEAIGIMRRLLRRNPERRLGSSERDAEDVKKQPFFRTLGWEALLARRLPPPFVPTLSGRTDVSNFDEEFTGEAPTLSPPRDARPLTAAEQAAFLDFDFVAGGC
Experimental: as §4

Ret (V804L)(h) = Ret (V804L)(h) (Homo sapiens, UniProt P07949, V804L); experiment: Kinase Profiler; format: biochemical
Chain of Ret (V804L)(h) (P07949 29-1114 V804L): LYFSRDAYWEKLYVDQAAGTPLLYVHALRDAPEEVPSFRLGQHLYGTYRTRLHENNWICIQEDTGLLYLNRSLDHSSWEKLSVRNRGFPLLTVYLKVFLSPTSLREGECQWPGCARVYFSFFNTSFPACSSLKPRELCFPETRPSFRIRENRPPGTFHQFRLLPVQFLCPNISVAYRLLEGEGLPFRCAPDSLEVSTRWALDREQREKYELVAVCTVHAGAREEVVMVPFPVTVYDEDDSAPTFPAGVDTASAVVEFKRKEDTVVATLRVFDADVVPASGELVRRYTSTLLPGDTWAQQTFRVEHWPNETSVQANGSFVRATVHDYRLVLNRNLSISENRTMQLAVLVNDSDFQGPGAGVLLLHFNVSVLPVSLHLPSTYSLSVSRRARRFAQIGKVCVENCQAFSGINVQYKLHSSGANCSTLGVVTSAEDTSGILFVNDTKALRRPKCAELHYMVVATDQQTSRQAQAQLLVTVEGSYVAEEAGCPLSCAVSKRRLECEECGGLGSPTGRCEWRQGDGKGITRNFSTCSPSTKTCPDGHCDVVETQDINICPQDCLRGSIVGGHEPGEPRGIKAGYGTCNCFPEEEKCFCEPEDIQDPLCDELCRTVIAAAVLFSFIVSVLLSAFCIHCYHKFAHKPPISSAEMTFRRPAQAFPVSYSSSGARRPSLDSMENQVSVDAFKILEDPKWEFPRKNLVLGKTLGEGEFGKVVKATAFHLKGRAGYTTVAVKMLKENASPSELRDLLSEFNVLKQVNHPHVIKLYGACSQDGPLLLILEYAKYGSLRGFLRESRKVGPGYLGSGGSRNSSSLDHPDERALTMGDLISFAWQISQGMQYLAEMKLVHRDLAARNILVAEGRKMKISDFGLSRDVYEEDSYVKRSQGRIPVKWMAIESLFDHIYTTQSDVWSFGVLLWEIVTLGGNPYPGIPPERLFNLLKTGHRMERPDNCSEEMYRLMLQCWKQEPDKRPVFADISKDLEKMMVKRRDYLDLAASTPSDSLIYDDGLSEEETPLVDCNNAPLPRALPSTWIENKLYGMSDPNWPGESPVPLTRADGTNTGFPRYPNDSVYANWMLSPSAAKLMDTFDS
Experimental: as §5

Rsk1(h) = Rsk1(h) (Homo sapiens, UniProt Q15418); experiment: Kinase Profiler; format: biochemical
Experimental: as §5

SLK(h) = SLK(h) (Homo sapiens, UniProt Q9H2G2); experiment: Kinase Profiler; format: biochemical
Experimental: as §5

STK25(h) = STK25(h) (Homo sapiens, UniProt O00506); experiment: Kinase Profiler; format: biochemical
Chain of STK25(h) (O00506 whole entry): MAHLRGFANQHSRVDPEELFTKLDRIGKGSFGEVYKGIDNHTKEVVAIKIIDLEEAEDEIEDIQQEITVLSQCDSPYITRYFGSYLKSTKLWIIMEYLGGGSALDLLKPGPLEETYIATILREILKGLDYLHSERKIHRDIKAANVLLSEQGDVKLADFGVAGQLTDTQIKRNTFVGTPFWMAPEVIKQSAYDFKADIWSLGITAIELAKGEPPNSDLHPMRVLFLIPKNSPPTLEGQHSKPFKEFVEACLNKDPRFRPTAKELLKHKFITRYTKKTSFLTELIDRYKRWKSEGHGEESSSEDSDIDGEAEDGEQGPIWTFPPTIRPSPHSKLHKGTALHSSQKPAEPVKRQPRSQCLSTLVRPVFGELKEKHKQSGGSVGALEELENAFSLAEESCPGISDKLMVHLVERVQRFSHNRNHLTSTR
Experimental: as §5

ULK1(h) = ULK1(h) (Homo sapiens, UniProt O75385); experiment: Kinase Profiler; format: biochemical
Experimental: as §4

In the case of `COc1ccc(OC)c(NS(=O)(=O)c2ccc(NC(=O)CCSc3ccc(C)cc3)cc2)c1` [Compound A41], the IC50 (MDA-MB-468 Luc cells; dose-response curve, Figure 5B, read-out: IC50, colony formation) is reported as 2.1 µM, the colony formation (MDA-MB-468 Luc cells; increasing concentrations) is reported as “significantly inhibited colony formation in a dose-dependent manner” and the “hyperactivation of AKT” value [1] is reported as “reduced”. The p44/42 activation [2] was “unchanged”, the “% inh.” value (Adrenergic α1D) was 21% and the “% inh.” value (Dopamine D2S) was 35%. The “Activity(%)” value (AMPKα1(h)) was 102%, the “Activity(%)” value (BIKe(h)) was 112% and the “Activity(%)” value (BMPR2(h)) was 100%. The “Activity(%)” value (CDK6/cyclinD3(h)) was 111%, the “Activity(%)” value (CRIK(h)) was 106% and the “Activity(%)” value (DYRK3(h)) was 112%. The “Activity(%)” value (GRK7(h)) was 100%, the “Activity(%)” value (Itk(h)) was 78% and the “Activity(%)” value (MARK1(h)) was 110%. The “Activity(%)” value (NEK11(h)) was 99%, the “Activity(%)” value (p70S6K(h)) was 103% and the “Activity(%)” value (PAK1(h)) was 115%. For the same compound, the “Activity(%)” value (PAK3(h)) was 107%, the “Activity(%)” value (PKBγ(h)) was 98% and the “Activity(%)” value (PKD3(h)) was 104%. The “Activity(%)” value (PRK1(h)) was 93%, the “Activity(%)” value (Ret (V804L)(h)) was 93% and the “Activity(%)” value (Rsk1(h)) was 122%. For the same compound, the “Activity(%)” value (SLK(h)) was 127%, the “Activity(%)” value (STK25(h)) was 98% and the “Activity(%)” value (ULK1(h)) was 106%.
